Assay results as given in paper PMC6497424 (ACS Catalysis, 2019).
Each block holds one molecule with its values, some of them ahead of it.

Assays:
[1] = target: T1, PtHmfF (P. thermopropionicum HmfF) (Pelotomaculum thermopropionicum, UniProt A5D4Z9); assay: X-ray crystal structure, […] Å, FMN soak; type: binding; conditions: K+ and Mn2+ present; stable analogue in prFMN site; untagged enzyme
T1 construct: gene UbiD; codon-optimised, full length; pET30a C-terminal His-tag from E. coli BL21(DE3), coexpressed with E. coli UbiX; untagged (pET21b) for crystals; hexamer (D3); The eightfold dimer variant is in pET28a (His-tag)

[2] = target: T2, PtHmfF (P. thermopropionicum HmfF) (Pelotomaculum thermopropionicum, UniProt A5D4Z9, A315N/N348R/F351D/T355N/A388P/F393T/V395F/M399R); assay: X-ray crystal structure, […] Å; type: binding; conditions: dimer variant; cofactor copurified from UbiX coexpression
T2 construct: gene UbiD; codon-optimised, full length; pET30a C-terminal His-tag from E. coli BL21(DE3), coexpressed with E. coli UbiX; untagged (pET21b) for crystals; hexamer (D3); The eightfold dimer variant is in pET28a (His-tag)

[3] = target: T1, PtHmfF (P. thermopropionicum HmfF); assay: in vitro reconstitution of apo-enzyme; UV-vis spectra and activity; type: biochemical; conditions: reduced prFMN added anaerobically, then oxidative maturation in air; FDCA 900 μM, 25 °C
[4] = target: Pelotomaculum thermopropionicum 2,5-furandicarboxylic acid decarboxylase (HmfF), wild type, untagged (Pelotomaculum thermopropionicum); assay: crystal structure; untagged PtHmfF, space group P21, crystals soaked with FMN in the presence of K+ and Mn2+, data to 2.7 Å, six monomers in the asymmetric unit; solved by Se-Met SAD
[5] = target: Pelotomaculum thermopropionicum HmfF dimer variant (A315N, N348R, F351D, T355N, A388P, F393T, V395F, M399R) (Pelotomaculum thermopropionicum); assay: SEC-MALS; 25 °C; 500 μL of 1.5 mg/mL protein on Superdex 200 10/300GL; 200 mM KCl, 1 mM MnCl2, 50 mM Tris pH 7.5; 0.75 mL/min
[6] = target: Pelotomaculum thermopropionicum HmfF dimer variant (A315N, N348R, F351D, T355N, A388P, F393T, V395F, M399R) (Pelotomaculum thermopropionicum); assay: crystal structure; PtHmfF dimer variant with prFMN, crystals grown at 4 °C, 2.3 Å, molecular replacement with the WT monomer; two monomers in the asymmetric unit

Molecule: Cc1cc2nc3c(=O)[nH]c(=O)nc-3n(C[C@H](O)[C@H](O)[C@H](O)COP(=O)(O)O)c2cc1C [FMN]
- X-ray crystal structure, 2.7 Å, FMN soak [1]: revealing clear electron density for both the FMN and the associated metal ions

Molecule: Cc1cc2c3c(c1C)C(C)(C)CC=[N+]3c1c([nH]c(=O)[nH]c1=O)N2C[C@H](O)[C@H](O)[C@H](O)COP(=O)(O)O [prFMN]
- X-ray crystal structure, 2.3 Å [2]: the dimer variant crystals contain prFMN in the active site
- in vitro reconstitution of apo-enzyme; UV-vis spectra and activity [3]: HmfF requires oxidative maturation of prFMN for activity

- stoichiometry N [4]: 6
Molecule: Pelotomaculum thermopropionicum 2,5-furandicarboxylic acid decarboxylase (HmfF), wild type, untagged (enzyme)

- stoichiometry N [5]: 2
- stoichiometry N [6]: 2
Molecule: Pelotomaculum thermopropionicum HmfF dimer variant (A315N, N348R, F351D, T355N, A388P, F393T, V395F, M399R) (enzyme)
